Reference: patent EP4722219A1 (Gan & Lee Pharmaceuticals Co., Ltd., priority 2023, dated 2024)
Changes are numbered by the printed parent chain. Where two headings read alike, the source gives them in different places.

Key:
[1] = biological target: CRBN protein (Homo sapiens, UniProt Q96SW2); test: Binding activity to E3 ubiquitin ligase CRBN (HTRF competitive binding kit, Thalidomide-Red)
Source text: Binding activity of the E3 ligase inhibitor disclosed in the present invention to E3 ubiquitin ligase CRBN
CRBN binding activity test kit (CEREBLON BINDING KITS (PE, 64BD CRBN PEG).
The detection is based on homogeneous time-resolved fluorescence (HTRF) technology.
This kit uses a europium-labeled GST antibody (GST Eu Cryptate Antibody) as the donor and XL665-labeled thalidomide (Thalidomide-Red reagent) as the receptor. The donor binds to the GST-tagged CRBN protein.
The donor and receptor were each diluted 50-fold using the buffer provided in the kit (PROTAC binding buffer 1). The CRBN protein was diluted 45-fold. An 8mM solution of the compound disclosed herein was diluted 10-fold using the diluent provided in the kit (1X diluent), followed by 7 successive 5-fold serial dilutions of the resulting solution.
The ratio of the acceptor and donor emission signals was calculated for each individual well.
IC50 values was calculated based on compound concentration, Ratio, and coefficient of variation using GraphPad Prism.

[2] = biological target: T1, AR protein (Homo sapiens, UniProt P10275); test: AR protein degradation in VCaP cells (Western blot); assay type: cell-based; conditions: 8h
T1 construct: host or cells: VCaP
T1 sequence (P10275 1-920): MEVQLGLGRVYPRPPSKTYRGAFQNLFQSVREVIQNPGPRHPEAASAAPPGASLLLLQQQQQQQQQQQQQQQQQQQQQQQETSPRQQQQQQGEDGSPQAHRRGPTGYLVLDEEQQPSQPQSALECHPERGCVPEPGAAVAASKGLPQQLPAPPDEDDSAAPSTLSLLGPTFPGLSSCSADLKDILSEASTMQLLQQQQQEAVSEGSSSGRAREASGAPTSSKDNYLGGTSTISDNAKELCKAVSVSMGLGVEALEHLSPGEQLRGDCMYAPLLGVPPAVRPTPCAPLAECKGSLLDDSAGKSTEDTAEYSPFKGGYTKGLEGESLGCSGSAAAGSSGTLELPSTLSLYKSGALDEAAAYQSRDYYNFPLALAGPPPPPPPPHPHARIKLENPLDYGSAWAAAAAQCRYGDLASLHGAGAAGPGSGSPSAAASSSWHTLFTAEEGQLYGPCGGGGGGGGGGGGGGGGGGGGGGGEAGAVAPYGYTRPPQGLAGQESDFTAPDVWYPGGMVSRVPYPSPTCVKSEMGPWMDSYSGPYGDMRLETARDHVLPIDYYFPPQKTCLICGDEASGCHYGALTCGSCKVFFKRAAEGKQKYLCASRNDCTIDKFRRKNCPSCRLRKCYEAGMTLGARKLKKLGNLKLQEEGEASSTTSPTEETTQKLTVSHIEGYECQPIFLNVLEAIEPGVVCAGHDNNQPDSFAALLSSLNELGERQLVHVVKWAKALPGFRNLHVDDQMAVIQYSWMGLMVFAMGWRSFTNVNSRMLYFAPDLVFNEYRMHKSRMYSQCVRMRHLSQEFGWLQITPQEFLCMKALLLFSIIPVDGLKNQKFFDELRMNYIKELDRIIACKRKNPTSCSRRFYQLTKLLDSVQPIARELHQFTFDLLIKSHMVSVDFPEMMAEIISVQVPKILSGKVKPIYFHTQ
Description: The degradation activity of the compounds disclosed in the present invention on AR protein in VCaP cells (cell source: ATCC)
The AR-positive human prostate cancer cells VCaP cultured in DMEM (GiBco catalog number 11995-065) containing 10% FBS (Hyclone catalog number SH30406.05) was inoculated in a six-well microplate (Thermo catalog number 140675) at a concentration of 3×10^5 cells/ well. After being cultured overnight in a carbon dioxide incubator (ESCO), the prepared compound of the present invention and the positive control sample ARV-766 (Annaiji) solution of different concentrations were added at a volume of 1 µL/well to make the final concentrations of the compound and the positive control sample reach 5nM and 0.5nM, respectively. At the same time, the corresponding solvent control was set and cultured for 8h. After 8h of culture, the culture medium was removed, and the cells were washed with PBS. RIPA lysis buffer containing 1% Protease Inhibitor Cocktail was added. After lysis and centrifugation, a total protein extract was obtained, and the protein concentration in the extract was detected by BCA method. Protein electrophoresis was performed using SDS-PAGE, and then the protein was transferred to a PVDF (Millipore Sigma catalog number PSRP010R5) membrane at a constant voltage of 100V for 60min. The PVDF membrane was placed in a 5% milk powder 1×TBST solution and blocked at room temperature for 1h. The primary antibody solution (Anti-Androgen receptor, Cell Signaling Technology catalog number: 5153S; 1:2000 dilution) was prepared and was incubated at 4°C overnight. The primary antibody solution was discarded and the PVDF membrane was washed with 1×TBST for 5 minutes each time, for three times. The secondary antibody solution (Thermo catalog number SA5-35571; 1:7500 dilution) was prepared and was incubated at room temperature for 1 hour. The secondary antibody solution was discarded and the PVDF membrane was washed with 1×TBST for 5 minutes each time, for three times. A dual-color infrared laser imaging system (Licor catalog number Odyssey CLX) was used for Western membrane imaging. Image Studio software was used to analyze the grayscale of the bands. GAPDH protein bands were also detected for each sample as the reference. The AR protein degradation rate of the compound and the positive control sample was calculated based on the grayscale of the protein bands.
Table 7 Degradation rate of AR protein in VCaP cells by the compounds disclosed in the present invention

[3] = system: VCaP cells; test: Inhibition of VCaP cell proliferation (WST-8); assay type: cell-based; conditions: Homo sapiens, 168 hours
Description: On the first day of the experiment, VCaP cells were seeded at a density of 15,000 cells/well in a 96-well plate using DMEM medium containing 10% fetal bovine serum, with 100µL of cell suspension per well, and cultured overnight in a cell incubator at 37°C and 5% CO2. On the second day, 100µL of the compound of the present invention and the positive control ARV-110 (source: Anaiji) prepared in culture medium at different concentrations were added to each well. The final concentration of the compound was 9 concentration points of 5-fold serial dilution starting from 10 µM. […] On the ninth day, the 96-well cell culture plate was removed and 1/10 volume of WST-8 (Beytime, C0040) reagent was added to each well. The absorbance at 450nm was measured using a microplate reader (TECAN, F50).

[4] = system: LNCaP cells; test: Inhibition of LNCaP cell proliferation (WST-8); assay type: cell-based; conditions: Homo sapiens, LNCaP FGC cells, 96 hours
Description: The inhibitory activity of compounds disclosed in the present invention on LNCaP cell proliferation
The cells were cultured overnight in a 37°C, 5% CO2 cell incubator. […] The final concentration of the compound was 9 concentration points of 5-fold serial dilution starting from 10 µM. […] The cells were cultured in a cell culture incubator at 37°C and 5% CO2 for 96 hours. On the sixth day, the 96-well cell culture plate was removed, and 1/10 volume of WST-8 (Beytime, C0040) reagent was added to each well. The absorbance at 450 nm was detected using a microplate reader (TECAN, F50).

[5] = biological target: T2, AR protein (Homo sapiens, UniProt P10275, T878A); test: AR protein degradation in LNCaP cells (Western blot); assay type: cell-based; conditions: 8 hours
T2 construct: host or cells: LNCaP FGC
T2 sequence (P10275 1-920 T878A): T1 sequence (P10275 1-920) with T878A
In short: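 AR degradation rate derived from Western blot band densitometry, referenced to GAPDH, using total lysates of LNCaP cells treated 8 h with compound versus solvent control. Detection used infrared dual-color imaging after SDS-PAGE and PVDF transfer.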

[6] = competition with XL665-labeled thalidomide for GST-tagged CRBN protein, HTRF, 3 hours at room temperature, read-out: IC50

SMILES	IC50 [1, 6] [nM]	IC50 [3] [µM]	IC50 [4] [µM]	further results
O=C1CC[C@H](NC(=O)c2cc3c(cc2F)OC2(CCNCC2)CC3)C(=O)N1 [Compound A5, (S)-N-(2,6-dioxopiperidin-3-yl)-7-fluoro-spiro[2,4'-piperidine]-6-carboxamide]	–	–	–	IC50 [1]: 20800 nM
COc1cc2c(cc1C(=O)N[C@H]1CCC(=O)NC1=O)OCC21CCNCC1 [Compound A10, (S)-N-(2,6-dioxohesperidin-3-yl)-5-methoxy-2H-spiro[benzofuran-3,4'-piperidine]-6-carboxamide]	–	–	–	IC50 [1]: 24500 nM
COc1cc(O[C@H]2C(C)(C)[C@H](NC(=O)c3ccc(N4CCC(CN5CCN6c7ccc(C(=O)N[C@H]8CCC(=O)NC8=O)cc7OC[C@H]6C5)CC4)cc3)C2(C)C)ccc1C#N [A-P-74, (R)-3-((1-(4-(((1R,3R)-3-(4-cyano-3-methoxyphenoxy)-2,2,4,4-tetramethylcyclobutyl)carbamoyl)phenyl)piperidin-4-yl)methyl)-N-((S)-2,6-dioxopiperidin-3-yl)-1,2,3,4,4a,5-hexahydrobenzo[b]pyrazi no[1,2-d][1,4]oxazine-8-carboxamide]	–	2.16	0.5	Degradation rate of AR protein in VCaP cells ([2]; 0.5 nM): 2%; Degradation rate of AR protein in VCaP cells ([2]; 5 nM): 70%
N#Cc1cc2c(cc1Cl)OC1(CCN(C(=O)c3ccc(N4CCC(CN5CCC6(CCc7cc(C(=O)N[C@H]8CCC(=O)NC8=O)c(F)cc7O6)CC5)CC4)cc3)CC1)CO2 [A-P-53, (S)-1'-((1-(4-(7-chloro-6-cyano-3H-spiro[benzo[b][1,4]dioxane-2,4'-piperidin]-1'-carbonyl)phenyl)piperidin-4-yl)methyl)-N-(2,6-dioxopiperidin-3-yl)-7-fluorospiro[chroman-2,4'-piperidin]-6-carboxamide]	–	1.32	0.14	percent AR protein degradation at a fixed concentration at 0.01 µM ([5]; 10 nM): -11%; percent AR protein degradation at a fixed concentration at 0.1 µM ([5]; 100 nM): -3%
C[C@H]1CC2(CCN(c3ccc(N4CCC(CN5CC6(CCC7(CC6)COc6c7ccc7c6CN(C6CCC(=O)NC6=O)C7=O)C5)CC4)cc3)CC2)CN1c1ccc(C#N)c(Cl)c1 (stereo partly drawn) [A-P-6, 2-chloro-4-((3S)-8-(4-(4-((7'-(2,6-dioxopiperidin-3-yl)-6'-oxo-7',8'-dihydro-2'H,6'H-dipyrazole[azetidine-3,1'-cyclohexane-4',3'-furo[2,3-e]isoindol]-1-yl)methyl)piperidin-1-yl)phenyl)-3-methyl-2,8-diazaspiro[4.5]decan-2-yl)benzonitrile]	–	0.00016	1.02	Degradation of AR protein in LNCaP cells, 10 nM (%) ([5]; 10 nM): 58%; Degradation of AR protein in LNCaP cells, 100 nM (%) ([5]; 100 nM): 60%

Second part, led by results:

IC50 [1, 6] [nM]	IC50 [3] [µM]	IC50 [4] [µM]	SMILES	further results
45100	–	–	O=C1CC[C@H](NC(=O)c2cc3c(cc2F)N2CCNC[C@@H]2CO3)C(=O)N1 [Compound B3, (R)-N-((S)-2,6-dioxyhesperidin-3-yl)-9-fluoro-1,2,3,4,4,4a,5-hexahydrobenzo[b]pyrazino[1,2-d][1,4]oxazine-8-carboxamide]	–
90500	–	–	O=C1CCC(Nc2ccc3c(c2)C2(CCNCC2)CO3)C(=O)N1 (stereo not drawn) [Compound C2, 3-((2H-spiro[benzofuran-3,4'-piperidine]-5-yl)amino)piperidine-2,6-dione]	–
60200	–	–	O=C1CC[C@H](NC(=O)c2ccc3c(c2)OC[C@H]2CNCCN32)C(=O)N1 [Compound B2]	–
–	0.0055	0.44	CC1(C)[C@H](NC(=O)c2ccc(N3CCC(CN4CCN5c6ccc(C(=O)N[C@H]7CCC(=O)NC7=O)cc6OC[C@H]5C4)CC3)cc2)C(C)(C)[C@H]1Oc1ccc(C#N)c(Cl)c1 [A-P-77]	Degradation of AR protein in LNCaP cells, 10 nM (%) ([5]; 10 nM): 20%; Degradation of AR protein in LNCaP cells, 100 nM (%) ([5]; 100 nM): 62%
